Laboratory results as given in US11840515B2, “Methods for preparing N-(4-fluorobenzyl)-N-(1-methylpiperidin-4-yl)-N′-(4-(2-methylpropyloxy)phenylmethyl)carbamide and its tartrate salt and polymorphic form c” (ACADIA Pharmaceuticals Inc., priority 2015, dated 2023).
Where a name gives a salt, the structure may show the parent alone. Each block holds one compound with its values, some of them ahead of it.

Columns and labels:
[1] = solubility in water / aqueous systems; format: physicochemical
storage stability = format: physicochemical
bioavailability = format: in vivo; details: free base is deliberated at physiological pH ranges
[2] = thermal stability of polymorphic form; format: physicochemical

- solubility in aqueous systems ([1]; aqueous systems): very good
- storage stability (storage stability): high storage stability
- bioavailability (bioavailability): high bioavailability
Compound: CC(C)COc1ccc(CNC(=O)N(Cc2ccc(F)cc2)C2CCN(C)CC2)cc1 [Pimavanserin tartrate]

- thermostability of the polymorphic form [2]: thermostabile
Compound: CC(C)COc1ccc(CNC(=O)N(Cc2ccc(F)cc2)C2CCN(C)CC2)cc1 [Polymorphic Form C]

- solubility in water ([1]; water): low
Compound: CC(C)COc1ccc(CNC(=O)N(Cc2ccc(F)cc2)C2CCN(C)CC2)cc1 [pimavanserin, N-(4-fluorophenylmethyl)-N-(1-methylpiperidin-4-yl)-N′-(4-(2-methylpropyloxy)phenylmethyl)carbamide]
